Experimental data from patent US9802943B2, “HIV inhibiting bicyclic pyrimidine derivatives” (Janssen Sciences Ireland UC, priority 2004, dated 2017).

Legend:
Type in all cases: cell-based
[1] = tested on: Strain A (mutation Y181C in HIV reverse transcriptase); assay: cellular antiviral assay, HIV mutant strain A; details: for pEC50 A: strain A, Y181C; for EC50: Human immunodeficiency virus 1, read-out: pEC50 A (converted)
Description: (§1) Because of the increasing emergence of drug resistant HIV strains, the present compounds were tested for their potency against clinically isolated HIV strains harboring several mutations. These mutations are associated with resistance to reverse transcriptase inhibitors and result in viruses that show various degrees of phenotypic cross-resistance to the currently commercially available drugs such as for instance AZT and delavirdine.
(§2) The antiviral activity of the compound of the present invention has been evaluated in the presence of wild type HIV and HIV mutants bearing mutations at the reverse transcriptase gene. The activity of the compounds is evaluated using a cellular assay and the residual activity is expressed in pEC50 values. The columns IIIB and A-G in the table list the pEC50 values against various strains IIIB, A-G. • Strain IIIB is wild type HIV-LAI strain • Strain A contains mutation Y181C in HIV reverse transcriptase, • Strain B contains mutation K103N in HIV reverse transcriptase, • Strain C contains mutation L100I in HIV reverse transcriptase, • Strain D contains mutation Y188L in HIV reverse transcriptase, • Strain E contains mutations L100I and K103N in HIV reverse transcriptase, • Strain F contains mutations K103N and Y181C in HIV reverse transcriptase, and • Strain G contains mutations L100I, K103N, Y181C, V179I E138G L214F, V278V/I • and A327A/V in HIV reverse transcriptase.

[2] = tested on: Strain D (mutation Y188L in HIV reverse transcriptase); assay: cellular antiviral assay, HIV mutant strain D; details: for pEC50 D: strain D, Y188L; for EC50: Human immunodeficiency virus 1, read-out: pEC50 D (converted)
Description: as §1, §2

[3] = tested on: Strain G (mutations L100I, K103N, Y181C, V179I E138G L214F, V278V/I and A327A/V in HIV reverse transcriptase); assay: cellular antiviral assay, HIV mutant strain G; details: for pEC50 G: strain G, L100I, K103N, Y181C, V179I E138G L214F, V278V/I and A327A/V
Description: as §1, §2

[4] = tested on: Strain C (mutation L100I in HIV reverse transcriptase); assay: cellular antiviral assay, HIV mutant strain C; details: for pEC50 C: strain C, L100I; for EC50: Human immunodeficiency virus 1, read-out: pEC50 C (converted)
Description: as §1, §2

[5] = tested on: Strain B (mutation K103N in HIV reverse transcriptase); assay: cellular antiviral assay, HIV mutant strain B; details: for pEC50 B: strain B, K103N
Description: as §1, §2

[6] = tested on: Strain F (mutations K103N and Y181C in HIV reverse transcriptase); assay: cellular antiviral assay, HIV mutant strain F; details: for pEC50 F: strain F, K103N and Y181C; for EC50: Human immunodeficiency virus 1, read-out: pEC50 F (converted)
Description: as §1, §2

[7] = tested on: Strain IIIB (wild type HIV-LAI strain); assay: cellular antiviral assay, wild type HIV; details: for pEC50 IIIB: strain IIIB, wild type HIV-LAI; for EC50: Human immunodeficiency virus 1, IIIB, read-out: pEC50 IIIB (converted)
Description: as §1, §2

[8] = tested on: Strain E (mutations L100I and K103N in HIV reverse transcriptase); assay: cellular antiviral assay, HIV mutant strain E; details: for pEC50 E: strain E, L100I and K103N; for EC50: Human immunodeficiency virus 1, read-out: pEC50 E (converted)
Description: as §1, §2

Row | SMILES | pEC50 A [1] | pEC50 D [2] | pEC50 G [3] | pEC50 C [4] | pEC50 B [5] | pEC50 F [6] | pEC50 IIIB [7] | pEC50 E [8] | EC50 [1] [µM] | EC50 [2] [µM] | EC50 [4] [µM] | EC50 ([5]; Human immunodeficiency virus 1, read-out: pEC50 B (converted)) [µM] | EC50 [6] [µM] | EC50 [7] [µM] | EC50 [8] [µM] | EC50 ([3]; Human immunodeficiency virus 1, read-out: pEC50 G (converted)) [µM]
1 | Cc1cc(C=CC#N)ccc1N1CCc2c(C)nc(Nc3ccc(C#N)cc3)nc21 (mixture of isomers) [Compound 1] | 7.9 | 7.7 | 5.5 | 8.9 | 9 | 7.1 | 8.4 | 7.8 |  |  |  |  |  |  |  | 
2 | Cc1nc(Nc2ccc(C#N)cc2)nc2c1CCN2c1c(F)cc(C=CC#N)cc1F (mixture of isomers) [Compound 2] | 7.9 | 8.4 | 5.7 | 9.3 | 9.2 | 7.4 | 9.1 | 9.1 |  |  |  |  |  |  |  | 
3 | CCc1cc(C=CC#N)cc(CC)c1N1CCc2c(C)nc(Nc3ccc(C#N)cc3)nc21 (mixture of isomers) [Compound 3] | 7.8 | 7.8 | 5.7 | 8.7 | 8.5 | 7.7 | 7.9 | 8.5 |  |  |  |  |  |  |  | 
4 | Cc1nc(Nc2ccc(C#N)cc2)nc2c1CCN2c1ccc(C=CC#N)cc1F (mixture of isomers) [Compound 5] | 6.3 | 6.6 | <4.6 | 7.8 | 7.9 |  | 7.7 | 6.9 |  |  |  |  |  |  |  | 
5 | CCc1cc(C=CC#N)cc(Br)c1N1CCc2c(C)nc(Nc3ccc(C#N)cc3)nc21 (mixture of isomers) [Compound 6] | 7.7 | 7.5 | 5.5 | 8.4 | 8.3 | 7.5 | 8.3 | 8.3 |  |  |  |  |  |  |  | 
6 | Cc1nc(Nc2ccc(C#N)cc2)nc2c1CCN2c1c(Cl)cc(C=CC#N)cc1Cl (mixture of isomers) [Compound 7a] | 7.9 | 7.7 | 5.4 | 9.1 | 8.7 | 7.7 | 8.7 | 8.6 |  |  |  |  |  |  |  | 
7 | Cc1nc(Nc2ccc(C#N)cc2)nc2c1CCN2c1c(Cl)cc(C=CC#N)cc1Cl (mixture of isomers) [Compound 7b] | 8.1 | 7.7 | 5.4 | 9.1 | 9 | 7.7 | 9.1 | 8.5 |  |  |  |  |  |  |  | 
8 | Cc1cc(C=CC#N)cc(Br)c1N1CCc2c(C)nc(Nc3ccc(C#N)cc3)nc21 (mixture of isomers) [Compound 9] | 8.3 | 8.4 | <4.6 | 8.7 | 8.4 | 7.7 | 8.9 | 7.8 |  |  |  |  |  |  |  | 
9 | Cc1cc(C=CC#N)cc(C)c1N1CCc2c(C)nc(Nc3ccc(C#N)cc3)nc21 (mixture of isomers) [Compound 11] | 8.2 | 8.1 | 5.4 | 8.8 | 9 | 7.9 | 8.8 | 8.4 |  |  |  |  |  |  |  | 
10 | CCc1cc(/C=C/C#N)ccc1N1CCc2c(C)nc(Nc3ccc(C#N)cc3)nc21 [Compound 4] | 8.3 | 7.9 | 5.1 | 9 | 9 | 7.6 | 8.4 | 8.1 |  |  |  |  |  |  |  | 
11 | COc1cc(/C=C/C#N)cc(C)c1N1CCc2c(C)nc(Nc3ccc(C#N)cc3)nc21 [Compound 8] | 7.6 | 7.5 | 4.9 | 8.3 | 8.4 | 7.2 | 8.5 | 7.6 |  |  |  |  |  |  |  | 
12 | Cc1nc(Nc2ccc(C#N)cc2)nc2c1CCN2c1c(F)cc(/C=C/C#N)cc1Cl [Compound 10] | 8.4 | 8 | 5.7 | 9.2 | 9.1 | 7.9 | 9.2 | 8.7 |  |  |  |  |  |  |  | 
13 | Cc1nc(Nc2ccc(C#N)cc2)nc2c1CCN2c1c(F)cc(/C=C\C#N)cc1Cl [Compound 13] | 7.1 | 7 | 5.1 | 8.4 | 8.4 | 7 | 8.4 | 7.8 |  |  |  |  |  |  |  | 
14 | Cc1cc(CCC#N)ccc1N1CCc2c(C)nc(Nc3ccc(C#N)cc3)nc21 [Compound 14] | 7.8 | 7 | 5.5 | 8.4 | 8.5 | 6.9 | 8.9 | 7.2 |  |  |  |  |  |  |  | 
15 | Cc1cc(CCC#N)cc(C)c1N1CCc2c(C)nc(Nc3ccc(C#N)cc3)nc21 [Compound 15] | 8.2 | 7.3 | 5.7 |  | 8.6 | 8 | 9 | 8 |  |  |  |  |  |  |  | 
16 | CCc1nc2cnc(Nc3ccc(C#N)cc3)nc2n1-c1c(C)cc(/C=C/C#N)cc1C [Compound 22] |  |  |  |  |  |  |  |  | 0.316 | 1.58 | 0.316 | 0.00398 | 1.58 | 0.00398 | 3.16 | 
17 | N#C/C=C/c1cc(F)c(-n2c(N)nc3cnc(Nc4ccc(C#N)cc4)nc32)c(Cl)c1 [Compound 27] |  |  |  |  |  |  |  |  | 0.0794 | 0.501 | 0.0794 |  | 0.2 | 0.02 | 0.631 | 6.31
18 | Cc1cc(/C=C/C#N)cc(C)c1-n1nnc2cnc(Nc3ccc(C#N)cc3)nc21 [Compound 29] | 7.8 | 7.7 | 5.4 | 8.3 | 8.8 |  | 9.1 | 7.1 |  |  |  |  |  |  |  | 
